Measured values taken from patent US20250214969A1, “PROTEIN DEGRADERS AND USES THEREOF” (Kymera Therapeutics, Inc., priority 2022, published 2025).
pIC50: −log10 of the molar value.

How the values were obtained:
[1] = biological target: T1, truncated His-MBP-Tev-KLHDC2 (residues 1-363) (Homo sapiens, UniProt Q9Y2U9); experiment: KLHDC2 HTRF binding assay; conditions: 1 nM KLHDC2 (residues 1-363), fluorescein-labeled diglycine peptide probe
T1 construct: truncated His -MBP-Tev-KLHDC2 (residues 1-363) purified from E. coli; made in house; host or cells: E. coli
T1 sequence (Q9Y2U9 1-363): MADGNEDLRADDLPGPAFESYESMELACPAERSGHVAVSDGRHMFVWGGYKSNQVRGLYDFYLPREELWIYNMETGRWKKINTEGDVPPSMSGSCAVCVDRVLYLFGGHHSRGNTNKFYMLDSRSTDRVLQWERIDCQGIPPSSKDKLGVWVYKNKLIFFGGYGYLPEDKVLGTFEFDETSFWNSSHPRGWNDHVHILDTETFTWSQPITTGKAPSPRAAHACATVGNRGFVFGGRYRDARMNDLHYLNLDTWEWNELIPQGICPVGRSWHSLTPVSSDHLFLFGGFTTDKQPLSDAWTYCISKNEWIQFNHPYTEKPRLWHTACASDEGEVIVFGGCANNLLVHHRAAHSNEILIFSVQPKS

[2] = biological target: T1, truncated His-MBP-Tev-KLHDC2 (residues 1-363); experiment: KLHDC2 FP competition binding assay; conditions: 15 nM KLHDC2 (residues 1-363), 10 nM fluorescein-labeled diglycine peptide probe, read-out: KLHDC2 binding Human FP: average external IC50
Procedure: FP competition binding assays were performed using 15 nM truncated His -MBP-Tev-KLHDC2 (residues 1-363) purified from E. coli, 10 nM fluorescein-labeled diglycine peptide probe, and test compounds in assay buffer consisting of 50 mM HEPES-Na pH 7.5, 100 mM NaCl, 2 mM DTT, 0.005% Tween-20 with a final volume of 20 uL. Compound stocks were dissolved at 10 mM in 100% DMSO and 11 point titration with 3 fold serial dilution was performed in black, flat bottom 384 well microplates. Plates were incubated at room temperature for 30 minutes. Plates were centrifuged at 1000 rpm for 1 min, data were collected using an Envision plate reader in fluorescence polarization mode with excitation filter FITC FP at 480 nm, emission filter FITC FP P-pol at 535 nm and FITC FP S-pol at 535 nm. FP signal was calculated using the equation (mP=1000*(S-G*P)/(S+G*P), G-factor=1.0) and % Inhibition was calculated using no-protein controls for 100% inhibition and DMSO only reactions for 0l % inhibition (yes).

O=C(O)Cn1cc(C(=O)Nc2ccccc2)ccc1=O [I-374]
pIC50 [1]: < 5.30 | pIC50 [2]: < 5.30

O=C(O)C1CC(=O)N(C2CC2)C1 (centres unmarked) [I-216]
pIC50 [1]: < 5.30 | pIC50 [2]: < 5.30

O=C(O)Cn1cc(NC(=O)c2cc(-c3cccnc3)c3ccccc3c2)ccc1=O [I-88]
pIC50 [1]: 5.30 to 6.30 | pIC50 [2]: 5.30 to 6.30

O=C(O)Cc1cccc(NC(=O)c2ccccc2)c1 [I-325]
pIC50 [1]: < 5.30 | pIC50 [2]: < 5.30

CS(=O)(=O)c1ccc(-c2cccc(C(=O)Nc3ccc(=O)n(CC(=O)O)c3)c2)cc1 [I-192]
pIC50 [1]: < 5.30 | pIC50 [2]: < 5.30

COc1cc(-c2cccnc2)ccc1C(=O)Nc1ccc(=O)n(CC(=O)O)c1 [I-204]
pIC50 [1]: 5.30 to 6.30 | pIC50 [2]: < 5.30

CCc1cccc(-c2ccc(=O)n(CC(=O)O)c2)c1 [I-345]
pIC50 [1]: < 5.30 | pIC50 [2]: < 5.30

O=C(O)Cn1cc(NC(=O)c2ccc3nc(Cl)ccc3c2)ccc1=O [I-176]
pIC50 [1]: < 5.30 | pIC50 [2]: < 5.30

CC(C)Cn1ncc2c(C(=O)Nc3ccc(=O)n(CC(=O)O)c3)cccc21 [I-136]
pIC50 [1]: 5.30 to 6.30 | pIC50 [2]: < 5.30

O=C(O)Cn1cc(NC(=O)c2cccc(-c3cncs3)c2)ccc1=O [I-168]
pIC50 [1]: 5.30 to 6.30 | pIC50 [2]: < 5.30

O=C(O)Cn1cc(NC(=O)c2ccc(-c3ccccc3Cl)o2)ccc1=O [I-255]
pIC50 [1]: < 5.30 | pIC50 [2]: < 5.30

COc1cncc(N2CCC[C@H](C(=O)Nc3ccc(Cl)c(CC(=O)O)c3)C2)c1 [I-20]
pIC50 [1]: 6.30 to 7.30 | pIC50 [2]: 5.30 to 6.30

O=C(O)Cn1cc(NC(=O)c2cccc(-c3ccccn3)c2)ccc1=O [I-209]
pIC50 [1]: < 5.30 | pIC50 [2]: < 5.30

Cn1ccc2cccc(-c3ccc(=O)n(CC(=O)O)c3)c21 [I-363]
pIC50 [1]: < 5.30 | pIC50 [2]: < 5.30

COc1cccc(C2C(C(=O)O)CC(=O)N2C2CC2)c1 (centres unmarked) [I-218]
pIC50 [1]: < 5.30 | pIC50 [2]: < 5.30

O=C(O)Cn1cc(Nc2ncnc3c(-c4cccnc4)cccc23)ccc1=O [I-87]
pIC50 [1]: < 5.30 | pIC50 [2]: < 5.30

CCc1ccccc1C(=O)Nc1ccc(=O)n(CC(=O)O)c1 [I-318]
pIC50 [1]: < 5.30 | pIC50 [2]: < 5.30

Cc1cccc(-c2ccc(=O)n(CC(=O)O)c2)c1 [I-422]
pIC50 [1]: < 5.30 | pIC50 [2]: < 5.30

O=C(O)Cc1cnn2ccccc12 [I-223]
pIC50 [1]: < 5.30 | pIC50 [2]: < 5.30

Cc1cccc(-c2ccc(O)c(CC(=O)O)c2)c1 [I-337]
pIC50 [1]: < 5.30 | pIC50 [2]: < 5.30

O=C(O)C1CC(=O)N(CCOc2ccccc2Cl)C1 (centres unmarked) [I-228]
pIC50 [1]: < 5.30 | pIC50 [2]: < 5.30

O=C(O)Cn1cc(NC(=O)c2cc(-c3ccccc3)ccn2)ccc1=O [I-267]
pIC50 [1]: < 5.30 | pIC50 [2]: < 5.30

COc1nc2ccccc2cc1C(=O)Nc1ccc(=O)n(CC(=O)O)c1 [I-186]
pIC50 [1]: < 5.30 | pIC50 [2]: < 5.30

O=C(Nc1ccnc(C(=O)O)c1)c1cccc(-c2cccnc2)c1 [I-37]
pIC50 [1]: < 5.30 | pIC50 [2]: < 5.30

Cc1ccc(C)c(-c2cn(CC(=O)O)c(=O)cc2C)c1 [I-330]
pIC50 [1]: < 5.30 | pIC50 [2]: < 5.30

O=C(O)Cc1cccc(NC(=O)CCc2cccc(OC3CCCC3)c2)c1 [I-351]
pIC50 [1]: < 5.30 | pIC50 [2]: < 5.30

Cc1ccc(C(F)(F)F)cc1-c1ccc(=O)n(CC(=O)O)c1 [I-350]
pIC50 [1]: < 5.30 | pIC50 [2]: < 5.30

N#Cc1cccc(-c2ccc(=O)n(CC(=O)O)c2)c1 [I-324]
pIC50 [1]: < 5.30 | pIC50 [2]: < 5.30

Cc1cccc(-c2cccc(C(=O)Nc3ccc(=O)n(CC(=O)O)c3)c2)c1 [I-294]
pIC50 [1]: < 5.30 | pIC50 [2]: < 5.30

COc1ccc(C#N)cc1-c1ccc(=O)n(CC(=O)O)c1 [I-341]
pIC50 [1]: < 5.30 | pIC50 [2]: < 5.30

CCCc1cccc(-c2ccc(=O)n(CC(=O)O)c2)c1 [I-358]
pIC50 [1]: < 5.30 | pIC50 [2]: < 5.30

CC(C)(C)OC(=O)NCCCCCCn1ccc2c(C(=O)Nc3ccc(=O)n(CC(=O)O)c3)cccc21 [I-160]
pIC50 [1]: 6.30 to 7.30 | pIC50 [2]: 5.30 to 6.30

COc1ccc(/C=C/CC(=O)Nc2ccc(=O)n(CC(=O)O)c2)cc1 [I-210]
pIC50 [1]: < 5.30 | pIC50 [2]: < 5.30

O=C(O)Cn1cc(N2CC[C@@]3(CCCN(c4cccnc4)C3)C2=O)ccc1=O [I-14]
pIC50 [1]: < 5.30 | pIC50 [2]: < 5.30

O=C(O)C1CCOc2ccc(Cl)cc21 (centres unmarked) [I-215]
pIC50 [1]: < 5.30 | pIC50 [2]: < 5.30

CCOC(=O)Cn1cc(NC(=O)c2cccc(-c3cnccc3CCCCCCN)c2)ccc1=O [I-152]
pIC50 [1]: < 5.30 | pIC50 [2]: < 5.30

CC1(C)CCc2c(C(=O)Nc3ccc(=O)n(CC(=O)O)c3)csc2C1 [I-234]
pIC50 [1]: 5.30 to 6.30 | pIC50 [2]: < 5.30

CC(Cc1ccccc1Cl)C(=O)Nc1ccc(=O)n(CC(=O)O)c1 (centres unmarked) [I-310]
pIC50 [1]: < 5.30 | pIC50 [2]: < 5.30

CCN(CC)c1ccc2cc(C(=O)Nc3ccc(=O)n(CC(=O)O)c3)c(=O)oc2c1 [I-237]
pIC50 [1]: 6.30 to 7.30 | pIC50 [2]: 5.30 to 6.30

O=C(O)Cn1cc(NC(=O)c2cccc(-c3cncnc3)c2)ccc1=O [I-201]
pIC50 [1]: 5.30 to 6.30 | pIC50 [2]: 5.30 to 6.30

O=C(O)Cn1cc(NC(=O)COc2cccc3cnccc23)ccc1=O [I-251]
pIC50 [1]: < 5.30 | pIC50 [2]: < 5.30

Cc1ccc2cc(C(=O)Nc3ccc(=O)n(CC(=O)O)c3)cnc2c1 [I-189]
pIC50 [1]: < 5.30 | pIC50 [2]: < 5.30

O=C(O)Cn1cc(NC(=O)c2ccc3ccccc3c2)ccc1=O [I-211]
pIC50 [1]: 5.30 to 6.30 | pIC50 [2]: < 5.30

O=C(O)Cn1cc(N2Cc3ccccc3C2=O)ccc1=O [I-307]
pIC50 [1]: < 5.30 | pIC50 [2]: < 5.30

CC(C)(C)OC(=O)NCCCCCCc1cc(C(=O)Nc2ccc(=O)n(CC(=O)O)c2)cc(-c2cccnc2)c1 [I-165]
pIC50 [1]: > 7.30 | pIC50 [2]: 6.30 to 7.30

CN(CC1(C(=O)Nc2ccc(=O)n(CC(=O)O)c2)CC1)c1cccnc1 [I-43]
pIC50 [1]: < 5.30 | pIC50 [2]: < 5.30

O=C(O)Cn1cc(-c2ccccc2C(F)(F)F)ccc1=O [I-369]
pIC50 [1]: < 5.30 | pIC50 [2]: < 5.30

O=C(O)CCn1cc(NC(=O)c2cccc(-c3cccnc3)c2)ccc1=O [I-94]
pIC50 [1]: < 5.30 | pIC50 [2]: < 5.30

CNC(=O)c1cccc(-c2cccc(C(=O)Nc3ccc(=O)n(CC(=O)O)c3)c2)c1 [I-195]
pIC50 [1]: < 5.30 | pIC50 [2]: < 5.30

COc1cc(-c2cncs2)ccc1C(=O)Nc1ccc(=O)n(CC(=O)O)c1 [I-154]
pIC50 [1]: 5.30 to 6.30 | pIC50 [2]: < 5.30

O=C(O)Cn1cc(NC(=O)[C@H]2Cc3ccccc3N(c3cccnc3)C2)ccc1=O [I-12]
pIC50 [1]: < 5.30 | pIC50 [2]: < 5.30

COc1cc(-c2ccc(C)cc2)ccc1C(=O)Nc1ccc(=O)n(CC(=O)O)c1 [I-135]
pIC50 [1]: 5.30 to 6.30 | pIC50 [2]: < 5.30

O=C(O)Cn1cc(NC(=O)Cc2ccccc2)ccc1=O [I-377]
pIC50 [1]: < 5.30 | pIC50 [2]: < 5.30

Cc1ccc(C)c(-c2ccc(=O)n(CC(=O)O)c2)c1 [I-419]
pIC50 [1]: < 5.30 | pIC50 [2]: < 5.30

COc1cccc(OCC(=O)Nc2ccc(=O)n(CC(=O)O)c2)c1 [I-261]
pIC50 [1]: < 5.30 | pIC50 [2]: < 5.30

O=C(O)Cn1cc(NC(=O)[C@H]2CCCN(c3cccnc3)C2)c(C2CC2)cc1=O [I-57]
pIC50 [1]: < 5.30 | pIC50 [2]: < 5.30

O=C(O)Cn1cc(C(F)(F)F)ccc1=O [I-429]
pIC50 [1]: < 5.30 | pIC50 [2]: < 5.30

Cc1sc2c(c1C)C(c1ccc(Cl)cc1)=N[C@@H](CC(=O)NCCCCCCc1ccncc1-c1cccc(C(=O)Nc3ccc(=O)n(CC(=O)O)c3)c1)c1nnc(C)n1-2 [I-475]
pIC50 [1]: 6.30 to 7.30 | pIC50 [2]: > 7.30

CS(=O)(=O)Nc1cccc(CC(=O)O)c1 [I-227]
pIC50 [1]: < 5.30 | pIC50 [2]: < 5.30

O=C(O)CC(C(=O)n1ccc2ccccc21)c1ccc(=O)n(CC(=O)O)c1 (centres unmarked) [I-184]
pIC50 [1]: < 5.30 | pIC50 [2]: < 5.30

O=C(O)Cn1cc(N2CC[C@]3(CCCN(c4cccnc4)C3)C2=O)ccc1=O [I-15]
pIC50 [1]: 6.30 to 7.30 | pIC50 [2]: < 5.30

CN(C(=O)Cc1ccc(=O)n(CC(=O)O)c1)c1ccccc1 [I-272]
pIC50 [1]: < 5.30 | pIC50 [2]: < 5.30

O=C(O)Cc1ccccc1O [I-425]
pIC50 [1]: < 5.30 | pIC50 [2]: < 5.30

CC(C)c1ccc(S(=O)(=O)NCCC(=O)Nc2ccc(=O)n(CC(=O)O)c2)cc1 [I-180]
pIC50 [1]: < 5.30 | pIC50 [2]: < 5.30

CS(=O)(=O)NC(=O)Cn1cc(NC(=O)c2cccc(-c3cccnc3)c2)ccc1=O [I-78]
pIC50 [1]: < 5.30 | pIC50 [2]: < 5.30

NC(=O)Cc1cccc(-c2ccc(=O)n(CC(=O)O)c2)c1 [I-302]
pIC50 [1]: < 5.30 | pIC50 [2]: < 5.30

CNc1cncc(N2CCC[C@H](C(=O)Nc3ccc(=O)n(CC(=O)O)c3)C2)c1 [I-40]
pIC50 [1]: > 7.30 | pIC50 [2]: 6.30 to 7.30

CC(C)(C)OC(=O)NCCCCCCc1cncc(-c2cccc(C(=O)Nc3ccc(=O)n(CC(=O)O)c3)c2)c1 [I-169]
pIC50 [1]: > 7.30 | pIC50 [2]: 6.30 to 7.30

Cc1cccc(-c2cccn(CC(=O)O)c2=O)c1 [I-391]
pIC50 [1]: < 5.30 | pIC50 [2]: < 5.30

O=C(O)Cn1cc(-c2cccc(CCc3ccccc3)c2)ccc1=O [I-295]
pIC50 [1]: < 5.30 | pIC50 [2]: < 5.30

O=C(O)Cn1cc(NC(=O)[C@@H]2C[C@H](C(F)(F)F)CN(c3cccnc3)C2)ccc1=O [I-65]
pIC50 [1]: 6.30 to 7.30 | pIC50 [2]: 5.30 to 6.30

CNc1cncc(N2CCC[C@H](C(=O)Nc3ccc(Cl)c(CC(=O)O)c3)C2)c1 [I-18]
pIC50 [1]: 6.30 to 7.30 | pIC50 [2]: 5.30 to 6.30

O=C(O)Cn1cc(NC(=O)[C@H]2CCCN(c3cccnc3)C2)c(Cl)cc1=O [I-83]
pIC50 [1]: 6.30 to 7.30 | pIC50 [2]: 5.30 to 6.30
